The text below walks through data of publication PMC10745926, “Synthesis and Evaluation of Compound Targeting α7 and β2 Subunits in Nicotinic Acetylcholinergic Receptor” (Molecules, 2023).

Where two headings read alike, the source gives them in different places. Marks after values point to notes of the source that are not given here. Some results are limits rather than exact numbers.

In test [1] the target is T1, α4β2* nAChR (Rattus norvegicus, UniProt P09483+P12390).
T1 construct: Horizontal brain slices, 10 µm thick from male Sprague Dawley rats; from tissue; host or cells: rat brain slices (male Sprague Dawley), several brain regions
Format: binding.

The target in test [2] is T1, α4β2* nAChR. The experiment in a line: Rat brain homogenates labeled with 3H-cytisine (literature). Format: binding. Particulars: α4β2 value from 3H-cytisine rat brain homogenates, α7 from rat cloned receptors.
Test [3] has as its target T1, α4β2* nAChR. Particulars: read-out: Binding affinity α4β2*; rat brain cortex labeled with 3H-epibatidine; cited from earlier work.
In test [4] the target is T2, α7 nAChR (Rattus norvegicus, UniProt Q05941). More on the design: method as in PMID 28875553. Particulars: rat cloned receptors labeled with α-[125I]BuTX; read-out: Binding affinity α7*; cited from earlier work.
The test system of test [5] is α7 nAChR. In words: HEK293 cells transfected with α7 nAChRs (ASEM, literature). It counts as binding. Conditions: from cited affinities.
For test [6], the target named is α4β2 nAChR. Also noted: method as in PMID 24050653. Conditions: HEK293 cells transfected with α4β2 nAChRs; read-out: Binding affinity α4β2*; cited from earlier work.
The target of test [7] is α7 nAChR. Also noted: method as in PMID 24050653. Conditions: HEK293 cells transfected with α7 nAChRs; read-out: Binding affinity α7*; cited from earlier work.
Test [8] concerns the target T2, α7 nAChR. Format: binding.
The subject of test [9] is α4β2* nAChR. Particulars: cited from earlier work.
Test [10] addresses T2, α7 nAChR. More on the design: method as in PMID 18445710. Conditions: tested in rat; read-out: Binding affinity α7*; cited from earlier work.
In test [11] the target is T1, α4β2* nAChR. The experiment in a line: [3H]cytisine competition binding on rat brain slices (autoradiography). As to the method: Our previously published procedures were used for [^3H]cytisine experiments. Horizontal brain slices, 10 µm thick from male Sprague Dawley rats, were preincubated in the buffer (50 mmol/L Tris HCl containing 120 mmol/L NaCl, 5 mmol/L KCl, 2.5 mmol/L CaCl2, 1 mmol/L MgCl2, pH 7.4) for 10 min. The pre-incubation buffer was then discarded and the slices were incubated with [^3H]cytisine (2.5 nM, specific activity of 32.7 Ci/mmol) at 2 °C for 75 min. […] After incubation, slices were washed twice (2 min each wash) with ice-cold Tris buffer, pH 7.4, followed by a quick rinse in cold (0–5 °C) deionized water. The slides were then air dried and the radiolabeled brain sections were apposed on storage phosphor screens for two weeks (Perkin Elmer Multisensitive, Medium MS, New Jersy, USA). For autoradiographic analysis, the apposed phosphor screens were read and analyzed by OptiQuant acquisition and analysis program of the Cyclone Storage Phosphor System (Packard Instruments Co., Boston, MA, USA). Regions of interest of same size were drawn and analyzed on brain regions using OptiQuant software version 2 and binding of [^3H]cytisine measured in DLU/mm^2. Data were analyzed using following procedure: (a) the non-specific binding of [^3H]cytisine was subtracted for all samples; (b) the specific binding was normalized to 100% (no competitive ligand); and (c) the binding isotherms were fit to the Hill equation (KELL BioSoft software (v 6), Cambridge, UK).

For test [12], the target named is T2, α7 nAChR. In words: biochemical. It counts as binding.
In test [13] the test system is α7 nAChR. The experiment in a line: HEK293 membranes expressing α7 nAChRs (Iodo-ASEM, literature). Format: binding. Particulars: IodoASEM, from cited affinities.
Test [14] addresses α4β2 nAChR. Also noted: method as in PMID 25687449. Particulars: HEK293 membranes expressing α4β2 nAChRs; read-out: Binding affinity α4β2*; cited from earlier work.
Test [15] addresses α7 nAChR. More on the design: method as in PMID 25687449. Conditions: cited from earlier work.
Test [16] deals with human α4β2 nAChR. Conditions: cytisine, from cited affinities.
Test [17] has as its system human α4β2 nAChR. Conditions: cited from earlier work.
The next test addresses human α7 nAChR. Conditions: read-out: Binding affinity α7*; human α7 nAChR in SH-SY5Y cells; cited from earlier work.
[18] abbreviates: frontal cortex values taken from Table 1.

Take `Fc1ncccc1OC[C@@H]1C=CCN1` [Nifene]: the “α4β2/α7 Ratio” value at α4β2* nAChR [1] (listed as with α4β2 value from 3H-epibatidine rat cortex) stood at 0.007. The “α7/α4β2 Ratio” value at α4β2* nAChR [1] (α4β2 value from 3H-epibatidine rat cortex, α7 from rat cloned receptors) was 158; at α4β2* nAChR [2] it was 338. Further, the values for the Ki at α4β2* nAChR [3] and on α7 nAChR [4] were 1.07 nM and 169 nM, respectively.

For the compound `O=S1(=O)c2cc(N3CCN4CCC3CC4)ccc2-c2cccc(F)c21` [ASEM], the “α7/α4β2 Ratio” value in the test on α7 nAChR [5] is on record as 0.0007. Further, the figures for the Ki at α4β2 nAChR [6] and on α7 nAChR [7] were 562 nM and 0.37 nM, respectively.

On to α-Iodobungarotoxin, for which, on α7 nAChR [8], the “α4β2/α7 Ratio” value is reported as 2000 and the “α7/α4β2 Ratio” value was found to be 0.0005. Moreover, the “Binding affinity α4β2*” value in the test on α4β2* nAChR [9] is >1000 ^f nM. Further, the Ki at α7 nAChR [10] was 0.5 nM.

For `c1ncc(N2CCN3CCC2CC3)cc1OCC1CCN1` [KS7, 3-(2-(S)-azetidinylmethoxy)-5-(1,4-diaza-bicyclo[3.2.2]nonane)pyridine], the IC50 on α4β2* nAChR [11] (frontal cortex value taken from Table 1, read-out: Binding affinity α4β2*) is 109 nM; on α4β2* nAChR [11] (rat brain slices, Anterior Cingulate, read-out: Inhibition constants (IC50), [3H]Cytisine, α4β2* nAChRs), 49.5 nM; at α4β2* nAChR [11] (rat brain slices, Frontal Cortex, read-out: Inhibition constants (IC50), [3H]Cytisine, α4β2* nAChRs), 109 nM; on α4β2* nAChR [11] (rat brain slices, Striatum, read-out: Inhibition constants (IC50), [3H]Cytisine, α4β2* nAChRs), 86.9 nM; at α4β2* nAChR [11] (rat brain slices, Subiculum, read-out: Inhibition constants (IC50), [3H]Cytisine, α4β2* nAChRs), 172 nM; at α4β2* nAChR [11] (rat brain slices, Thalamus, read-out: Inhibition constants (IC50), [3H]Cytisine, α4β2* nAChRs), 134 nM. Also, the IC50 on α4β2* nAChR [11] (rat brain, several brain regions (abstract), read-out: IC50 for [3H]cytisine radiolabeled sites) was 50 to 172 nM; at α7 nAChR [12] (frontal cortex value taken from Table 1, read-out: Binding affinity α7*) it was 9900 nM; at α7 nAChR [12] (rat brain slices, Anterior Cingulate, read-out: Inhibition constants (IC50), [125I]α-BuTX, α7* nAChRs) it was 12600 nM; on α7 nAChR [12] (rat brain slices, Frontal Cortex, read-out: Inhibition constants (IC50), [125I]α-BuTX, α7* nAChRs), 9900 nM; at α7 nAChR [12] (rat brain slices, Hippocampus, read-out: Inhibition constants (IC50), [125I]α-BuTX, α7* nAChRs), 33200 nM; at α7 nAChR [12] (rat brain slices, Inferior Colliculus, read-out: Inhibition constants (IC50), [125I]α-BuTX, α7* nAChRs) it was 46800 nM. The “α4β2/α7 Ratio” value on α4β2* nAChR [11] (setting [18]) was 0.01 ^j. The “α7/α4β2 Ratio” value on α4β2* nAChR [11] (setting [18]) is given as 91 ^j; at α4β2* nAChR [11] (ratio of IC50 values, Anterior Cingulate), 254; on α4β2* nAChR [11] (ratio of IC50 values, Frontal Cortex) it was 91.

For `O=S1(=O)c2cc(N3CCN4CCC3CC4)ccc2-c2cccc(I)c21` [IodoASEM], the “α7/α4β2 Ratio” value with α7 nAChR [13] amounted to 0.0003. Further, the Ki is 1710 nM on α4β2 nAChR [14] and 0.5 nM on α7 nAChR [15] (HEK293 membranes expressing α7 nAChRs, read-out: Binding affinity α7*). Further, in the test on α7 nAChR [15] (HEK293 membranes), the “α4β2/α7 Ratio” value is recorded as 3414 ^h.

In the case of `O=c1cccc2n1C[C@@H]1CNC[C@H]2C1` [Cytisine], in the test on human α4β2 nAChR [16], the “α4β2/α7 Ratio” value amounted to 0.002. Moreover, in the test on human α4β2 nAChR [17] (heterologously expressed human receptors), the “α7/α4β2 Ratio” value is 544 ^e. The Ki on human α4β2 nAChR [17] (read-out: Binding affinity α4β2*, human α4β2 in HEK293 cells) was 1.27 nM; at human α7 nAChR it was 691 nM.
